According to paper PMC8113149 (Bioorganic & medicinal chemistry letters, 2021):
pEC50, pIC50: −log10 of the molar value. “Also recorded” adds a separate entry of the source. Read-outs that look alike come from different tables or passages of the source.

What was measured:
tubulin [1] = conditions: lead compounds, cited from earlier work
cellular microtubules [2] = conditions: read-out: Cellular microtubule depolymerization EC50; lead compounds; cited from earlier work
tubulin [3] = assay: Inhibition of [3H]colchicine binding to tubulin
cellular microtubules [4] = assay: Cellular microtubule depolymerization; type: cell-based; conditions: 5-methyl vs 5-desmethyl compound
MDA-MB-435 = assay: Antiproliferative effects in MDA-MB-435; type: cell-based, human; conditions: 5-methyl vs 5-desmethyl compound
tubulin [5] = assay: Inhibition of tubulin assembly; type: biochemical
NCI 60 cell line panel = assay: NCI-60 panel, overall; type: cell-based; conditions: Homo sapiens, read-out: GI50 against most/many tumor cell lines
[6] = test system: MCF-7 TUBB3 (βIII-tubulin overexpressing) tumors; assay: MCF-7 TUBB3 orthotopic xenograft; type: in vivo, mouse; conditions: athymic female mice; 9 at 30 mg/kg two times weekly, paclitaxel 10 mg/kg/week
[7] = Animal weight and MTD in xenograft study

COc1ccc(/C=C\c2cc(OC)c(OC)c(OC)c2)cc1O [CA-4, combretastatin A-4]
Inhibition of colchicine binding, % inhibition ± SD (tubulin [1]; 0.5 μM inhibitor): 84 ± 3% | pEC50 (cellular microtubules [2]): 8.01 | Inhibition of colchicine binding, % inhibition ± SD (tubulin [3]; 0.5 μM inhibitor): 84 ± 3%

COc1ccc(Nc2nc(C)nc3cc[nH]c23)cc1 [Compound 1]
Inhibition of colchicine binding, % inhibition ± SD (tubulin [1]; 5 μM inhibitor): 0% | pEC50 (cellular microtubules [2]): < 5.00

COc1ccc(N(C)c2nc(C)nc3cc[nH]c23)cc1 [Compound 2]
pEC50 (cellular microtubules [2]): 5.92

COc1ccc(N(C)c2nc(C)nc3ccn(C)c23)cc1 [Compound 3]
Fold more potent in cellular microtubule depolymerization than 5-desmethyl 2 (cellular microtubules [4]): 160 fold | Fold more potent in antiproliferative effects than 5-desmethyl 2 (MDA-MB-435): 22 fold | pEC50 (cellular microtubules [2]): 8.13

COc1ccc(N(C)c2nc(C)nc3c(Cc4ccccc4)cn(C)c23)cc1 [Compound 5]
Fold more potent in inhibiting tubulin assembly than 5-desmethyl compound (tubulin [5]; 5 vs 4, 7 vs 6): 43 fold

COc1ccc(N(C)c2nc(Cl)nc3cnn(C)c23)cc1 [Compound 9]
GI50 (NCI 60 cell line panel): ≤ 10 nM | Primary tumor growth / tumor volume [6]: decreased primary tumor growth | Animal weight change ([7]; percent weight change at day 41 over starting weight): no significant weight loss

COc1ccc(Nc2nc(Cl)nc3cnn(C)c23)cc1 [Compound 10]
Inhibition of tubulin assembly, in words (tubulin [5]): did not inhibit tubulin assembly; also recorded: no effect | pIC50 (tubulin [5]; read-out: Inhibition of tubulin assembly IC50 ± SD): < 4.70 | Inhibition of [3H]colchicine binding, in words (tubulin [3]): completely inactive

CSc1ccc(N(C)c2nc(Cl)nc3cnn(C)c23)cc1 [Compound 15]
Inhibition of [3H]colchicine binding, in words (tubulin [3]): equipotent to 9

CC(=O)O[C@H]1C(=O)[C@@]2(C)[C@H]([C@H](OC(=O)c3ccccc3)[C@]3(O)C[C@H](OC(=O)[C@H](O)[C@@H](NC(=O)c4ccccc4)c4ccccc4)C(C)=C1C3(C)C)[C@]1(OC(C)=O)CO[C@@H]1C[C@@H]2O [Paclitaxel, paclitaxel]
Maximally tolerated dose (MTD) ([7]; mice): 10 mg/kg/week
